Reference: the supplement of paper PMC10307832

Experiments:
Assay in all cases: relative viability (nuclei count vs DMSO), 5 days (fraction); higher = more cells survive
NCI-H520 = test system: NCI-H520
Summary of the method: (§1)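 Relative viability divides the nuclei count in treated wells by that in vehicle wells. Lung cancer cell lines were seeded in 1536-well plates, dosed by pin tool the next day, and fixed and stained after 5 days in one step with final 0.05% Triton X-100, 1% formaldehyde and 1 ug/ml Hoechst. Dosing was a single drug or a fixed anchor-drug dose plus five library-drug doses (not always all listed) in √10 steps, and values are medians of duplicate plates imaged at 4×.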

NCI-H647 = test system: NCI-H647
Summary of the method: as §1

NCI-H2170 = test system: NCI-H2170
Summary of the method: as §1

NCI-H460 = test system: NCI-H460
Summary of the method: as §1

HOP-62 = test system: HOP-62
Summary of the method: as §1

NCI-H727 = test system: NCI-H727
Summary of the method: as §1

NCI-H2405 = test system: NCI-H2405
Summary of the method: as §1

NCI-H2023 = test system: NCI-H2023
Summary of the method: as §1

ChaGo-K-1 = test system: ChaGo-K-1
Summary of the method: as §1

NCI-H441 = test system: NCI-H441
Summary of the method: as §1

NCI-H1793 = test system: NCI-H1793
Summary of the method: as §1

NCI-H1437 = test system: NCI-H1437
Summary of the method: as §1

HCC-44 = test system: HCC-44
Summary of the method: as §1

LOU-NH91 = test system: LOU-NH91
Summary of the method: as §1

EMC-BAC-2 = test system: EMC-BAC-2
Summary of the method: as §1

SW 1573 = test system: SW 1573
Summary of the method: as §1

NCI-H650 = test system: NCI-H650
Summary of the method: as §1

NCI-H23 = test system: NCI-H23
Summary of the method: as §1

EPLC-272H = test system: EPLC-272H
Summary of the method: as §1

NCI-H2009 = test system: NCI-H2009
Summary of the method: as §1

LCLC-103H = test system: LCLC-103H
Summary of the method: as §1

NCI-H2347 = test system: NCI-H2347
Summary of the method: as §1

NCI-H2126 = test system: NCI-H2126
Summary of the method: as §1

O=C(O)CCCCC(CCSCc1ccccc1)SCc1ccccc1 (stereo not given) [CPI-613] + N=C(N)NC(=N)NCCc1ccccc1 [Phenformin] (partner 250 µM)
relative viability (NCI-H520; first compound 5 µM): 0.667 | relative viability (NCI-H520; first compound 15.81 µM): 0.433 | relative viability (NCI-H520; first compound 50 µM): 0.634 | relative viability (NCI-H520; first compound 158.11 µM): 0.446 | relative viability (NCI-H520; first compound 500 µM): 0.35 | relative viability (NCI-H647; first compound 5 µM): 0.575 | relative viability (NCI-H647; first compound 15.81 µM): 0.408 | relative viability (NCI-H647; first compound 50 µM): 0.501 | relative viability (NCI-H647; first compound 158.11 µM): 0.108 | relative viability (NCI-H647; first compound 500 µM): 0.0098 | relative viability (NCI-H2170; first compound 5 µM): 0.435 | relative viability (NCI-H2170; first compound 15.81 µM): 0.404 | relative viability (NCI-H2170; first compound 50 µM): 0.38 | relative viability (NCI-H2170; first compound 158.11 µM): 0.352 | relative viability (NCI-H2170; first compound 500 µM): 0.11 | relative viability (NCI-H460; first compound 5 µM): 0.521 | relative viability (NCI-H460; first compound 15.81 µM): 0.449 | relative viability (NCI-H460; first compound 50 µM): 0.434 | relative viability (NCI-H460; first compound 158.11 µM): 0.115 | relative viability (NCI-H460; first compound 500 µM): 0.0156 | relative viability (HOP-62; first compound 5 µM): 0.67 | relative viability (HOP-62; first compound 15.81 µM): 0.632 | relative viability (HOP-62; first compound 50 µM): 0.62 | relative viability (HOP-62; first compound 158.11 µM): 0.437 | relative viability (HOP-62; first compound 500 µM): 0.204 | relative viability (NCI-H727; first compound 5 µM): 0.548 | relative viability (NCI-H727; first compound 15.81 µM): 0.693 | relative viability (NCI-H727; first compound 50 µM): 0.62 | relative viability (NCI-H727; first compound 158.11 µM): 0.353 | relative viability (NCI-H727; first compound 500 µM): 0.0983 | relative viability (NCI-H2405; first compound 5 µM): 0.394 | relative viability (NCI-H2405; first compound 15.81 µM): 0.367 | relative viability (NCI-H2405; first compound 50 µM): 0.392 | relative viability (NCI-H2405; first compound 158.11 µM): 0.396 | relative viability (NCI-H2405; first compound 500 µM): 0.371 | relative viability (NCI-H2023; first compound 5 µM): 0.399 | relative viability (NCI-H2023; first compound 15.81 µM): 0.37 | relative viability (NCI-H2023; first compound 50 µM): 0.36 | relative viability (NCI-H2023; first compound 158.11 µM): 0.0556 | relative viability (NCI-H2023; first compound 500 µM): 0.0073 | relative viability (ChaGo-K-1; first compound 5 µM): 0.47 | relative viability (ChaGo-K-1; first compound 15.81 µM): 0.454 | relative viability (ChaGo-K-1; first compound 50 µM): 0.491 | relative viability (ChaGo-K-1; first compound 158.11 µM): 0.331 | relative viability (ChaGo-K-1; first compound 500 µM): 0.124 | relative viability (NCI-H441; first compound 5 µM): 0.885 | relative viability (NCI-H441; first compound 15.81 µM): 0.734 | relative viability (NCI-H441; first compound 50 µM): 0.79 | relative viability (NCI-H441; first compound 158.11 µM): 0.284 | relative viability (NCI-H441; first compound 500 µM): 0.0276 | relative viability (NCI-H1793; first compound 5 µM): 0.314 | relative viability (NCI-H1793; first compound 15.81 µM): 0.319 | relative viability (NCI-H1793; first compound 50 µM): 0.45 | relative viability (NCI-H1793; first compound 158.11 µM): 0.194 | relative viability (NCI-H1793; first compound 500 µM): 0.0229 | relative viability (NCI-H1437; first compound 5 µM): 0.237 | relative viability (NCI-H1437; first compound 15.81 µM): 0.282 | relative viability (NCI-H1437; first compound 50 µM): 0.287 | relative viability (NCI-H1437; first compound 158.11 µM): 0.119 | relative viability (NCI-H1437; first compound 500 µM): 0.0327 | relative viability (HCC-44; first compound 5 µM): 0.15 | relative viability (HCC-44; first compound 15.81 µM): 0.195 | relative viability (HCC-44; first compound 50 µM): 0.185 | relative viability (HCC-44; first compound 158.11 µM): 0.268 | relative viability (HCC-44; first compound 500 µM): 0.248 | relative viability (LOU-NH91; first compound 5 µM): 0.784 | relative viability (LOU-NH91; first compound 15.81 µM): 0.591 | relative viability (LOU-NH91; first compound 50 µM): 0.652 | relative viability (LOU-NH91; first compound 158.11 µM): 0.504 | relative viability (LOU-NH91; first compound 500 µM): 0.526 | relative viability (EMC-BAC-2; first compound 5 µM): 0.531 | relative viability (EMC-BAC-2; first compound 15.81 µM): 0.517 | relative viability (EMC-BAC-2; first compound 50 µM): 0.502 | relative viability (EMC-BAC-2; first compound 158.11 µM): 0.226 | relative viability (EMC-BAC-2; first compound 500 µM): 0.0232 | relative viability (SW 1573; first compound 5 µM): 0.347 | relative viability (SW 1573; first compound 15.81 µM): 0.357 | relative viability (SW 1573; first compound 50 µM): 0.304 | relative viability (SW 1573; first compound 158.11 µM): 0.0746 | relative viability (SW 1573; first compound 500 µM): 0.0663 | relative viability (NCI-H650; first compound 5 µM): 0.508 | relative viability (NCI-H650; first compound 15.81 µM): 0.412 | relative viability (NCI-H650; first compound 50 µM): 0.448 | relative viability (NCI-H650; first compound 158.11 µM): 0.371 | relative viability (NCI-H650; first compound 500 µM): 0.333 | relative viability (NCI-H23; first compound 5 µM): 0.819 | relative viability (NCI-H23; first compound 15.81 µM): 0.746 | relative viability (NCI-H23; first compound 50 µM): 0.803 | relative viability (NCI-H23; first compound 158.11 µM): 0.358 | relative viability (NCI-H23; first compound 500 µM): 0.0072 | relative viability (EPLC-272H; first compound 5 µM): 0.286 | relative viability (EPLC-272H; first compound 15.81 µM): 0.26 | relative viability (EPLC-272H; first compound 50 µM): 0.309 | relative viability (EPLC-272H; first compound 158.11 µM): 0.279 | relative viability (EPLC-272H; first compound 500 µM): 0.0144 | relative viability (NCI-H2009; first compound 5 µM): 0.478 | relative viability (NCI-H2009; first compound 15.81 µM): 0.443 | relative viability (NCI-H2009; first compound 50 µM): 0.42 | relative viability (NCI-H2009; first compound 158.11 µM): 0.0548 | relative viability (NCI-H2009; first compound 500 µM): 0.0187 | relative viability (LCLC-103H; first compound 5 µM): 0.322 | relative viability (LCLC-103H; first compound 15.81 µM): 0.297 | relative viability (LCLC-103H; first compound 50 µM): 0.377 | relative viability (LCLC-103H; first compound 158.11 µM): 0.294 | relative viability (LCLC-103H; first compound 500 µM): 0.278 | relative viability (NCI-H2347; first compound 5 µM): 0.441 | relative viability (NCI-H2347; first compound 15.81 µM): 0.352 | relative viability (NCI-H2347; first compound 50 µM): 0.461 | relative viability (NCI-H2347; first compound 158.11 µM): 0.471 | relative viability (NCI-H2347; first compound 500 µM): 0.378 | relative viability (NCI-H2126; first compound 5 µM): 0.535 | relative viability (NCI-H2126; first compound 15.81 µM): 0.524 | relative viability (NCI-H2126; first compound 50 µM): 0.585 | relative viability (NCI-H2126; first compound 158.11 µM): 0.368 | relative viability (NCI-H2126; first compound 500 µM): 0.0437
